From ChEMBL document CHEMBL1139537, “Examination of phosphoryl-mimicking functionalities within a macrocyclic Grb2 SH2 domain-binding platform” (J Med Chem, 2005)

Tests used:
[1] = target: T1, Growth factor receptor-bound protein 2 (Homo sapiens, UniProt P62993); assay: Inhibitory concentration against growth factor receptor bound protein 2
[2] = target: T1, Growth factor receptor-bound protein 2; assay: Binding on-rate against growth factor receptor bound protein 2
[3] = target: T1, Growth factor receptor-bound protein 2; assay: Binding off-rate against growth factor receptor bound protein 2
[4] = target: T1, Growth factor receptor-bound protein 2; assay: Dissociation constant value against growth factor receptor bound protein 2

Row | SMILES | IC50 [1] [nM] | Ka [2] [M⁻¹ s⁻¹] | koff [3] [s⁻¹] | Kd [4] [nM]
1 | Cc1ccc2c(ccn2C[C@@H]2C/C=C/[C@H](c3ccc([N+](=O)[O-])cc3)[C@H](CC(=O)O)C(=O)NC3(CCCCC3)C(=O)N[C@@H](CC(N)=O)C(=O)NC2)c1 | – | – | – | > 1000
2 | Cc1ccc2c(ccn2C[C@@H]2C/C=C/[C@H](c3ccc(CC(=O)O)cc3)[C@H](CC(=O)O)C(=O)NC3(CCCCC3)C(=O)N[C@@H](CC(N)=O)C(=O)NC2)c1 | 22.5 | – | 0.0101 | 33
3 | Cc1ccc2c(ccn2C[C@@H]2C/C=C/[C@H](c3ccc(NC(=O)C(=O)O)cc3)[C@H](CC(=O)O)C(=O)NC3(CCCCC3)C(=O)N[C@@H](CC(N)=O)C(=O)NC2)c1 | 8.8 | – | 0.0508 | 67
4 | Cc1ccc2c(ccn2C[C@@H]2C/C=C/[C@H](c3ccc(O)cc3)[C@H](CC(=O)O)C(=O)NC3(CCCCC3)C(=O)N[C@@H](CC(N)=O)C(=O)NC2)c1 | – | – | – | > 1000
5 | Cc1ccc2c(ccn2C[C@@H]2C/C=C/[C@H](c3ccc(CP(=O)(O)Cc4ccccc4)cc3)[C@H](CC(=O)O)C(=O)NC3(CCCCC3)C(=O)N[C@@H](CC(N)=O)C(=O)NC2)c1 | 8.4 | – | 0.00512 | 35.3

Stronger by Kd [4], values ahead:

Row | IC50 [1] [nM] | Ka [2] [M⁻¹ s⁻¹] | koff [3] [s⁻¹] | Kd [4] [nM] | SMILES
6 | 15 | 5.46e+06 | 0.00801 | 1.47 | Cc1ccc2c(ccn2C[C@@H]2C/C=C/[C@H](c3ccc(CP(=O)(O)O)cc3)[C@H](CC(=O)O)C(=O)NC3(CCCCC3)C(=O)N[C@@H](CC(N)=O)C(=O)NC2)c1
7 | 6.3 | – | 0.00988 | 16.2 | Cc1ccc2c(ccn2C[C@@H]2C/C=C/[C@H](c3ccc(CP(C)(=O)O)cc3)[C@H](CC(=O)O)C(=O)NC3(CCCCC3)C(=O)N[C@@H](CC(N)=O)C(=O)NC2)c1
8 | 3.3 | – | 0.0227 | 3.62 | Cc1ccc2c(ccn2C[C@@H]2C/C=C/[C@H](c3ccc(C(C(=O)O)C(=O)O)cc3)[C@H](CC(=O)O)C(=O)NC3(CCCCC3)C(=O)N[C@@H](CC(N)=O)C(=O)NC2)c1
